≈ marks a conversion by molar mass, not a printed value. Calls of active or inactive are those of the source. The rule behind the calls is not given here. Residues, ends and D or L forms follow the SMILES beside them.
Assays:
[1] = Toxicity in human RBC assessed as hemolysis upto 25 ug/ml; type: cell-based; details: erythrocyte
Acinetobacter baumannii = assay: Antimicrobial activity against […] Acinetobacter baumannii ATCC 19606 by broth microdilution method; type: functional
[2] = tested on: Stenotrophomonas maltophilia; assay: Antimicrobial activity against […] Stenotrophomonas maltophilia CUN 3998-00 by broth microdilution method; type: functional
Pseudomonas aeruginosa [3] = assay: Antimicrobial activity against Pseudomonas aeruginosa CUN 4158-02 by broth microdilution method; type: functional
Escherichia coli = assay: Antimicrobial activity against Escherichia coli ATCC 25922 by broth microdilution method; type: functional
Pseudomonas aeruginosa [4] = assay: Antimicrobial activity against Pseudomonas aeruginosa ATCC 27853 by broth microdilution method; type: functional
Staphylococcus aureus [5] = assay: Antimicrobial activity against methicillin-resistant Staphylococcus aureus ATCC 43300 by broth microdilution method; type: functional
[6] = tested on: Bordetella bronchiseptica; assay: Antimicrobial activity against Bordetella bronchiseptica CUN11844-99 by broth microdilution method; type: functional
Staphylococcus aureus [7] = assay: Antimicrobial activity against Staphylococcus aureus ATCC 25923 by broth microdilution method; type: functional
Staphylococcus aureus [8] = assay: Antimicrobial activity against methicillin-resistant Staphylococcus aureus CUN 3792-99 by broth microdilution method; type: functional
Homo sapiens = species on record: Homo sapiens; assay: Antiinflammatory activity in human MNC assessed as inhibition of LPS-induced TNFalpha production at compound: LPS ratio of 100:1 weight percent by ELISA; type: functional

Question: Which Activity [1] does the source give for CC[C@H](C)[C@H](NC(=O)CN)C(=O)NCC(=O)N[C@@H](C)C(=O)N[C@H](C(=O)N[C@@H](CC(C)C)C(=O)N[C@@H](CCCCN)C(=O)N[C@H](C(=O)N[C@@H](CC(C)C)C(=O)N[C@H](C(=O)N[C@H](C(=O)NCC(=O)N[C@@H](CC(C)C)C(=O)N1CCC[C@H]1C(=O)N[C@@H](C)C(=O)N[C@@H](CC(C)C)C(=O)N[C@H](C(=O)N[C@@H](CO)C(=O)N[C@@H](Cc1c[nH]c2ccccc12)C(=O)N[C@H](C(=O)N[C@@H](CCCCN)C(=O)N[C@@H](CCCNC(=N)N)C(=O)N[C@@H](CCCCN)C(=O)N[C@@H](CCCNC(=N)N)C(=O)N[C@@H](CCC(N)=O)C(=O)N[C@@H](CCC(N)=O)C(N)=O)[C@@H](C)CC)[C@@H](C)CC)[C@@H](C)O)[C@@H](C)O)C(C)C)C(C)C [MELITTIN] here?
Answer: Non-toxic

Question: Which MIC (Acinetobacter baumannii) does the source give for N=C(N)NCCC[C@H](NC(=O)[C@H](Cc1ccc(O)cc1)NC(=O)[C@H](CCCNC(=N)N)NC(=O)[C@H](Cc1c[nH]c2ccccc12)NC(=O)[C@H](CCCNC(=N)N)NC(=O)[C@H](Cc1ccccc1)NC(=O)[C@H](CCCCN)NC(=O)[C@H](CCCCN)NC(=O)[C@H](Cc1c[nH]c2ccccc12)NC(=O)[C@H](CCCNC(=N)N)NC(=O)[C@H](CCCNC(=N)N)NC(=O)[C@H](CS)NC(=O)CN)C(=O)NCC(=O)N[C@@H](CCCCN)C(=O)N[C@@H](Cc1ccccc1)C(=O)N[C@@H](Cc1c[nH]c2ccccc12)C(=O)N[C@@H](Cc1ccccc1)C(=O)N[C@@H](Cc1c[nH]c2ccccc12)C(=O)N[C@@H](CS)C(=O)NCC(=O)O (H-GCRRWKKFRWRYRGKFWFWCG-OH) here?
Answer: 64 mg/L (≈ 22 µM)

Question: And the MIC [2]?
Answer: 64 mg/L (≈ 22 µM)

Question: And the MIC (Pseudomonas aeruginosa [3])?
Answer: 128 mg/L (≈ 44 µM)

Question: And the MIC (Escherichia coli)?
Answer: 128 mg/L (≈ 44 µM)

Question: And the MIC (Pseudomonas aeruginosa [4])?
Answer: 128 mg/L (≈ 44 µM)

Question: And the MIC (Staphylococcus aureus [5])?
Answer: 32 mg/L (≈ 11 µM)

Question: What about the MIC [6] of the same compound?
Answer: 32 mg/L (≈ 11 µM)

Question: What about the MIC (Staphylococcus aureus [7]) of the same compound?
Answer: 64 mg/L (≈ 22 µM)

Question: And the MIC (Staphylococcus aureus [8])?
Answer: 64 mg/L (≈ 22 µM)

Question: What does the source list for N=C(N)NCCC[C@H](NC(=O)[C@H](Cc1ccc(O)cc1)NC(=O)[C@H](CCCCN)NC(=O)[C@H](CCCCN)NC(=O)CN)C(=O)N[C@@H](CCCNC(=N)N)C(=O)N[C@@H](Cc1ccccc1)C(=O)N[C@@H](Cc1c[nH]c2ccccc12)C(=O)N[C@@H](CCCCN)C(=O)N[C@@H](Cc1ccccc1)C(=O)N[C@@H](CCCCN)C(=O)NCC(=O)N[C@@H](CCCCN)C(=O)N[C@@H](Cc1c[nH]c2ccccc12)C(=O)N[C@@H](Cc1ccccc1)C(=O)N[C@@H](Cc1c[nH]c2ccccc12)C(=O)N[C@@H](Cc1ccccc1)C(=O)N[C@@H](Cc1c[nH]c2ccccc12)C(=O)NCC(=O)O (H-GKKYRRFWKFKGKWFWFWG-OH)?
Answer: MIC (Acinetobacter baumannii): 16 mg/L (≈ 6.06 µM); MIC [2]: 64 mg/L (≈ 24.3 µM); MIC (Pseudomonas aeruginosa [3]): 32 mg/L (≈ 12.1 µM); MIC (Escherichia coli): 1020 mg/L (≈ 388 µM); MIC (Pseudomonas aeruginosa [4]): 8 mg/L (≈ 3.03 µM); MIC (Staphylococcus aureus [5]): 16 mg/L (≈ 6.06 µM); MIC [6]: 8 mg/L (≈ 3.03 µM); MIC (Staphylococcus aureus [7]): 1020 mg/L (≈ 388 µM); MIC (Staphylococcus aureus [8]): 16 mg/L (≈ 6.06 µM)

Question: With N=C(N)NCCC[C@H](NC(=O)CNC(=O)[C@H](CCCNC(=N)N)NC(=O)[C@H](Cc1ccccc1)NC(=O)[C@H](CCCNC(=N)N)NC(=O)[C@H](Cc1c[nH]c2ccccc12)NC(=O)[C@H](CCCCN)NC(=O)[C@H](Cc1ccccc1)NC(=O)[C@H](CCCCN)NC(=O)[C@H](CCCCN)NC(=O)[C@H](Cc1ccc(O)cc1)NC(=O)[C@H](CCCNC(=N)N)NC(=O)[C@H](CCCNC(=N)N)NC(=O)CN)C(=O)N[C@@H](Cc1ccccc1)C(=O)N[C@@H](Cc1c[nH]c2ccccc12)C(=O)N[C@@H](Cc1ccccc1)C(=O)N[C@@H](Cc1c[nH]c2ccccc12)C(=O)NCC(=O)O (H-GRRYKKFKWRFRGRFWFWG-OH) as the compound, how does the MIC (Escherichia coli) read?
Answer: 64 mg/L (≈ 24 µM)

Question: And the MIC [6]?
Answer: 16 mg/L (≈ 6 µM)

Question: And the MIC (Staphylococcus aureus [7])?
Answer: 32 mg/L (≈ 12 µM)

Question: With N=C(N)NCCC[C@H](NC(=O)[C@H](Cc1ccc(O)cc1)NC(=O)[C@H](CCCCN)NC(=O)[C@H](CCCCN)NC(=O)CN)C(=O)N[C@@H](CCCNC(=N)N)C(=O)N[C@@H](Cc1ccccc1)C(=O)N[C@@H](CCCNC(=N)N)C(=O)N[C@@H](Cc1c[nH]c2ccccc12)C(=O)N[C@@H](CCCCN)C(=O)N[C@@H](Cc1ccccc1)C(=O)N[C@@H](CCCCN)C(=O)NCC(=O)N[C@@H](CCCCN)C(=O)N[C@@H](Cc1c[nH]c2ccccc12)C(=O)N[C@@H](Cc1ccccc1)C(=O)N[C@@H](Cc1c[nH]c2ccccc12)C(=O)N[C@@H](Cc1ccccc1)C(=O)NCC(=O)O (H-GKKYRRFRWKFKGKWFWFG-OH) as the compound, how does the MIC (Acinetobacter baumannii) read?
Answer: 16 mg/L (≈ 6.13 µM)

Question: And the MIC [2]?
Answer: 32 mg/L (≈ 12.3 µM)

Question: And the MIC (Pseudomonas aeruginosa [3])?
Answer: 16 mg/L (≈ 6.13 µM)

Question: What about the MIC (Escherichia coli) of the same compound?
Answer: 16 mg/L (≈ 6.13 µM)

Question: And the MIC (Pseudomonas aeruginosa [4])?
Answer: 16 mg/L (≈ 6.13 µM)

Question: What about the MIC (Staphylococcus aureus [5]) of the same compound?
Answer: 16 mg/L (≈ 6.13 µM)

Question: And the MIC [6]?
Answer: 4 mg/L (≈ 1.53 µM)

Question: And the MIC (Staphylococcus aureus [7])?
Answer: 16 mg/L (≈ 6.13 µM)

Question: And the MIC (Staphylococcus aureus [8])?
Answer: 16 mg/L (≈ 6.13 µM)

Question: For CC(C)C[C@H](NC(=O)[C@H](CCCNC(=N)N)NC(=O)[C@H](CCCNC(=N)N)NC(=O)[C@H](Cc1ccccc1)NC(=O)[C@H](CCCCN)NC(=O)[C@H](CCCCN)NC(=O)[C@H](CS)NC(=O)CN)C(=O)N[C@@H](CCCCN)C(=O)N[C@@H](Cc1c[nH]c2ccccc12)C(=O)N[C@@H](CCCCN)C(=O)N[C@@H](Cc1ccc(O)cc1)C(=O)N[C@@H](CCCCN)C(=O)NCC(=O)N[C@@H](CCCCN)C(=O)N[C@@H](Cc1ccccc1)C(=O)N[C@@H](Cc1c[nH]c2ccccc12)C(=O)N[C@@H](Cc1ccccc1)C(=O)N[C@@H](Cc1c[nH]c2ccccc12)C(=O)N[C@@H](CS)C(=O)NCC(=O)O (H-GCKKFRRLKWKYKGKFWFWCG-OH), which MIC (Acinetobacter baumannii) is on record?
Answer: 64 mg/L (≈ 23.2 µM)

Question: What about the inhibition (Homo sapiens) of the same compound?
Answer: Active

Question: And the MIC [2]?
Answer: 512 mg/L (≈ 186 µM)

Question: And the MIC (Pseudomonas aeruginosa [3])?
Answer: 256 mg/L (≈ 93 µM)

Question: And the MIC (Escherichia coli)?
Answer: 64 mg/L (≈ 23.2 µM)

Question: What about the MIC (Pseudomonas aeruginosa [4]) of the same compound?
Answer: 256 mg/L (≈ 93 µM)

Question: What about the MIC (Staphylococcus aureus [5]) of the same compound?
Answer: 64 mg/L (≈ 23.2 µM)

Question: And the MIC [6]?
Answer: 4 mg/L (≈ 1.45 µM)

Question: And the MIC (Staphylococcus aureus [7])?
Answer: 32 mg/L (≈ 11.6 µM)

Question: What about the MIC (Staphylococcus aureus [8]) of the same compound?
Answer: 1020 mg/L (≈ 372 µM)

Question: With N=C(N)NCCC[C@H](NC(=O)CNC(=O)[C@H](CCCNC(=N)N)NC(=O)[C@H](Cc1ccc(O)cc1)NC(=O)[C@H](CCCNC(=N)N)NC(=O)[C@H](Cc1c[nH]c2ccccc12)NC(=O)[C@H](CCCCN)NC(=O)[C@H](CCCCN)NC(=O)[C@H](Cc1ccccc1)NC(=O)[C@H](CCCCN)NC(=O)[C@H](CCCCN)NC(=O)[C@H](Cc1ccccc1)NC(=O)[C@H](CCCNC(=N)N)NC(=O)[C@H](CCCNC(=N)N)NC(=O)[C@H](CS)NC(=O)CN)C(=O)N[C@@H](Cc1ccccc1)C(=O)N[C@@H](Cc1c[nH]c2ccccc12)C(=O)N[C@@H](Cc1ccccc1)C(=O)N[C@@H](Cc1c[nH]c2ccccc12)C(=O)N[C@@H](CS)C(=O)N[C@@H](Cc1ccccc1)C(=O)NCC(=O)O (H-GCRRFKKFKKWRYRGRFWFWCFG-OH) as the compound, how does the MIC (Acinetobacter baumannii) read?
Answer: 64 mg/L (≈ 20.3 µM)

Question: And the MIC [2]?
Answer: 64 mg/L (≈ 20.3 µM)

Question: What about the MIC (Pseudomonas aeruginosa [3]) of the same compound?
Answer: 128 mg/L (≈ 40.7 µM)

Question: And the MIC (Escherichia coli)?
Answer: 64 mg/L (≈ 20.3 µM)

Question: What about the MIC (Pseudomonas aeruginosa [4]) of the same compound?
Answer: 128 mg/L (≈ 40.7 µM)

Question: What about the MIC (Staphylococcus aureus [5]) of the same compound?
Answer: 32 mg/L (≈ 10.2 µM)

Question: What about the MIC [6] of the same compound?
Answer: 32 mg/L (≈ 10.2 µM)

Question: And the MIC (Staphylococcus aureus [7])?
Answer: 64 mg/L (≈ 20.3 µM)

Question: What about the MIC (Staphylococcus aureus [8]) of the same compound?
Answer: 64 mg/L (≈ 20.3 µM)

Question: Which MIC (Acinetobacter baumannii) does the source give for CC(C)C[C@H](NC(=O)[C@H](Cc1c[nH]c2ccccc12)NC(=O)[C@H](CC(C)C)NC(=O)[C@H](CCCCN)NC(=O)[C@H](CCC(N)=O)NC(=O)[C@H](CCCCN)NC(=O)[C@H](CS)NC(=O)[C@H](CCCCN)NC(=O)[C@H](CC(C)C)NC(=O)[C@H](CCCCN)NC(=O)[C@H](Cc1ccccc1)NC(=O)[C@H](CCCNC(=N)N)NC(=O)[C@H](CCCNC(=N)N)NC(=O)[C@H](Cc1ccccc1)NC(=O)[C@H](CCCCN)NC(=O)[C@H](CCCCN)NC(=O)[C@H](CS)NC(=O)CN)C(=O)N[C@@H](Cc1c[nH]c2ccccc12)C(=O)N[C@@H](CS)C(=O)NCC(=O)O (H-GCKKFRRFKLKCKQKLWLWCG-OH) here?
Answer: 64 mg/L (≈ 24.1 µM)

Question: And the MIC [2]?
Answer: 1020 mg/L (≈ 385 µM)

Question: What about the MIC (Pseudomonas aeruginosa [3]) of the same compound?
Answer: 256 mg/L (≈ 96.3 µM)

Question: And the MIC (Escherichia coli)?
Answer: 1020 mg/L (≈ 385 µM)

Question: What about the MIC (Pseudomonas aeruginosa [4]) of the same compound?
Answer: 256 mg/L (≈ 96.3 µM)

Question: And the MIC (Staphylococcus aureus [5])?
Answer: 64 mg/L (≈ 24.1 µM)

Question: What about the MIC [6] of the same compound?
Answer: 16 mg/L (≈ 6.02 µM)

Question: And the MIC (Staphylococcus aureus [7])?
Answer: 1020 mg/L (≈ 385 µM)

Question: What about the MIC (Staphylococcus aureus [8]) of the same compound?
Answer: 32 mg/L (≈ 12 µM)
